# In patent publication US10172863B2, “Purine derivatives useful as HSP90 inhibitors” (Sloan-Kettering Institute for Cancer Research, priority 2009, dated 2019):
# pEC50: −log10 of the molar value.
# Tested on: SKBr3 cell Hsp90
# Assay: EC50 for Hsp90 binding in SKBr3 cell lysate
# Settings: read-out: EC50, binding to SKBr3 cell Hsp90
row,pEC50,Compound
1,8.10,"CC(C)NCCCn1c(Sc2cc3c(cc2-c2ncco2)OCO3)nc2c(N)ncnc21 [Compound 4C-38, 9-(3-(isopropylamino)propyl)-8-(6-(oxazol-2-yl)benzo[d][1,3]dioxol-5-ylthio)-9H-purin-6-amine]"
2,7.10,"CC(C)NCCCn1c(Sc2cc3c(cc2-c2cccs2)OCO3)nc2c(N)ncnc21 [Compound 4D-1, 9-(3-(isopropylamino)propyl)-8-(6-(thiophen-2-yl)benzo[d][1,3]dioxol-5-ylthio)-9H-purin-6-amine]"
3,7.33,"CC(C)NCCCn1c(Sc2cc3c(cc2-c2nccs2)OCO3)nc2c(N)ncnc21 [Compound 4D-16, 9-(3-(isopropylamino)propyl)-8-(6-(thiazol-2-yl)benzo[d][1,3]dioxol-5-ylthio)-9H-purin-6-amine]"
4,5.02,"CC(C)NCCCn1c(Sc2cc3c(cc2-c2ccncc2)OCO3)nc2c(N)ncnc21 [Compound 4F-1, 9-(3-(isopropylamino)propyl)-8-(6-(pyridin-4-yl)benzo[d][1,3]dioxol-5-ylthio)-9H-purin-6-amine]"
5,5.99,"CC(C)NCCCn1c(Sc2cc3c(cc2-c2cn[nH]c2)OCO3)nc2c(N)ncnc21 [Compound 4G-1, 8-(6-(1H-pyrazol-4-yl)benzo[d][1,3]dioxol-5-ylthio)-9-(3-(isopropylamino)propyl)-9H-purin-6-amine]"
6,< 6.52,"CC(C)NCCCn1c(Sc2cc3c(cc2-c2ccnn2C)OCO3)nc2c(N)ncnc21 [Compound 4G-4, 9-(3-(isopropylamino)propyl)-8-(6-(1-methyl-1H-pyrazol-5-yl)benzo[d][1,3]dioxol-5-ylthio)-9H-purin-6-amine]"
7,8.26,"CC(C)NCCCn1c(Sc2cc3c(cc2-c2cc[nH]n2)OCO3)nc2c(N)ncnc21 [Compound 4G-6, 8-(6-(1H-pyrazol-3-yl)benzo[d][1,3]dioxol-5-ylthio)-9-(3-(isopropylamino)propyl)-9H-purin-6-amine]"
8,6.13,"CC(C)NCCCn1c(Sc2cc3c(cc2-c2ccc[nH]2)OCO3)nc2c(N)ncnc21 [Compound 4H-1, 8-(6-(1H-pyrrol-2-yl)benzo[d][1,3]dioxol-5-ylthio)-9-(3-(isopropylamino)propyl)-9H-purin-6-amine]"
9,6.79,"CC(C)NCCCn1c(Sc2cc3c(cc2-c2cc[nH]c2)OCO3)nc2c(N)ncnc21 [Compound 4H-3, 8-(6-(1H-pyrrol-3-yl)benzo[d][1,3]dioxol-5-ylthio)-9-(3-(isopropylamino)propyl)-9H-purin-6-amine]"
10,8.16,"CC(C)NCCCn1c(Sc2cc3c(cc2-c2ccco2)OCCO3)nc2c(N)ncnc21 [Compound 5B-1, 8-((7-(furan-2-yl)-2,3-dihydrobenzo[b][1,4]dioxin-6-yl)thio)-9-(3-(isopropylamino)propyl)-9H-purin-6-amine]"
11,8.46,"CC(C)NCCCn1c(Sc2cc3c(cc2-c2ncco2)OCCO3)nc2c(N)ncnc21 [Compound 5B-34, 9-(3-(isopropylamino)propyl)-8-((7-(oxazol-2-yl)-2,3-dihydrobenzo[b][1,4]dioxin-6-yl)thio)-9H-purin-6-amine]"

# Second part, the compound before the results:
row,Compound,pEC50
1,"CC(C)(C)CNCCn1c(Sc2cc3c(cc2-c2ccoc2)OCO3)nc2c(N)ncnc21 [Compound 4C-14, 8-(6-(furan-3-yl)benzo[d][1,3]dioxol-5-ylthio)-9-(2-(neopentylamino)ethyl)-9H-purin-6-amine]",8.00
2,"Cc1ccc(-c2cc3c(cc2Sc2nc4c(N)ncnc4n2CCNCC(C)(C)C)OCO3)o1 [Compound 4C-16, 8-(6-(5-methylfuran-2-yl)benzo[d][1,3]dioxol-5-ylthio)-9-(2-(neopentylamino)ethyl)-9H-purin-6-amine]",7.99
3,"CC(C)NCCCn1c(Sc2cc3c(cc2C2CC=CO2)OCO3)nc2c(N)ncnc21 (centres unmarked) [Compound 4C-40, 8-(6-(2,3-dihydrofuran-2-yl)benzo[d][1,3]dioxol-5-ylthio)-9-(3-(isopropylamino)propyl)-9H-purin-6-amine]",6.29
4,"CC(C)NCCCn1c(Sc2cc3c(cc2C2C=COC2)OCO3)nc2c(N)ncnc21 (centres unmarked) [Compound 4C-41, 8-(6-(2,3-dihydrofuran-3-yl)benzo[d][1,3]dioxol-5-ylthio)-9-(3-(isopropylamino)propyl)-9H-purin-6-amine]",5.68
5,"CC(C)(C)CNCCn1c(Sc2cc3c(cc2-c2cccs2)OCO3)nc2c(N)ncnc21 [Compound 4D-3, 9-(2-(neopentylamino)ethyl)-8-(6-(thiophen-2-yl)benzo[d][1,3]dioxol-5-ylthio)-9H-purin-6-amine]",7.73
6,"CC(C)NCCCn1c(Sc2cc3c(cc2CC#N)OCO3)nc2c(N)ncnc21 [Compound 4E-3, 2-(6-((6-amino-9-(3-(isopropylamino)propyl)-9H-purin-8-yl)thio)benzo[d][1,3]dioxol-5-yl)acetonitrile]",5.95
7,"CC(C)(C)CNCCn1c(Sc2cc3c(cc2-c2cc[nH]n2)OCO3)nc2c(N)ncnc21 [Compound 4G-9, 8-(6-(1H-pyrazol-3-yl)benzo[d][1,3]dioxol-5-ylthio)-9-(2-(neopentylamino)ethyl)-9H-purin-6-amine]",8.26
8,"CC(C)(C)CNCCn1c(Sc2cc3c(cc2-c2cc[nH]c2)OCO3)nc2c(N)ncnc21 [Compound 4H-4, 8-(6-(1H-pyrrol-3-yl)benzo[d][1,3]dioxol-5-ylthio)-9-(2-(neopentylamino)ethyl)-9H-purin-6-amine]",7.61
9,"CC(C)NCCCn1c(Sc2cc3c(cc2C2C=CCN2)OCO3)nc2c(N)ncnc21 (centres unmarked) [Compound 4H-7, 8-(6-(2,5-dihydro-1H-pyrrol-2-yl)benzo[d][1,3]dioxol-5-ylthio)-9-(3-(isopropylamino)propyl)-9H-purin-6-amine]",4.57
10,"CC(C)NCCCn1c(Sc2cc3c(cc2C2C=CCC2)OCO3)nc2c(N)ncnc21 (centres unmarked) [Compound 4I-12, 8-(6-(cyclopent-2-enyl)benzo[d][1,3]dioxol-5-ylthio)-9-(3-(isopropylamino)propyl)-9H-purin-6-amine]",6.40
11,"CC(C)NCCCn1c(Sc2cc3c(cc2I)OCCO3)nc2c(N)ncnc21 [Compound 5A-1, 8-(7-Iodo-2,3-dihydrobenzo[b][1,4]dioxin-6-ylthio)-9-(3-(isopropylamino)propyl)-9H-purin-6-amine]",7.46
12,"CC(C)CNCCN1C(Sc2cc3c(cc2I)OCCO3)=NC2C(N)=NC=NC21 (centres unmarked) [Compound 5A-2, 8-(7-Iodo-2,3-dihydrobenzo[b][1,4]dioxin-6-ylthio)-9-(2-(isobutylamino)ethyl)-5,9-dihydro-4H-purin-6-amine]",7.46
13,"CC(C)(C)CNCCN1C(Sc2cc3c(cc2I)OCCO3)=NC2C(N)=NC=NC21 (centres unmarked) [Compound 5A-3, 8-(7-Iodo-2,3-dihydrobenzo[b][1,4]dioxin-6-ylthio)-9-(2-(neopentylamino)ethyl)-5,9-dihydro-4H-purin-6-amine]",7.46
14,"Nc1ncnc2c1nc(Sc1cc3c(cc1I)OCCO3)n2CCCn1ccnc1 [Compound 5A-4, 9-(3-(1H-imidazol-1-yl)propyl)-8-(7-iodo-2,3-dihydrobenzo[b][1,4]dioxin-6-ylthio)-9H-purin-6-amine]",7.20
15,"CC(C)NCCCn1c(Sc2cc3c(cc2-c2cc[nH]n2)OCCO3)nc2c(N)ncnc21 [Compound 5D-2, 8-((7-(1H-pyrazol-3-yl)-2,3-dihydrobenzo[b][1,4]dioxin-6-yl)thio)-9-(3-(isopropylamino)propyl)-9H-purin-6-amine]",7.95
